Assay results published in ChEMBL document CHEMBL1141757, “Structural revision of aspernigrin A, reisolated from Cladosporium herbarum IFB-E002” (J Nat Prod, 2005).

Experiments:
[1] = target: Xanthine dehydrogenase/oxidase (Homo sapiens, UniProt P47989); assay: Inhibition of xanthine oxidase
[2] = Cytotoxicity against human SW1116 cells; assay type: functional, cell-based; conditions: SW 1116

Chain of Xanthine dehydrogenase/oxidase (P47989 whole entry): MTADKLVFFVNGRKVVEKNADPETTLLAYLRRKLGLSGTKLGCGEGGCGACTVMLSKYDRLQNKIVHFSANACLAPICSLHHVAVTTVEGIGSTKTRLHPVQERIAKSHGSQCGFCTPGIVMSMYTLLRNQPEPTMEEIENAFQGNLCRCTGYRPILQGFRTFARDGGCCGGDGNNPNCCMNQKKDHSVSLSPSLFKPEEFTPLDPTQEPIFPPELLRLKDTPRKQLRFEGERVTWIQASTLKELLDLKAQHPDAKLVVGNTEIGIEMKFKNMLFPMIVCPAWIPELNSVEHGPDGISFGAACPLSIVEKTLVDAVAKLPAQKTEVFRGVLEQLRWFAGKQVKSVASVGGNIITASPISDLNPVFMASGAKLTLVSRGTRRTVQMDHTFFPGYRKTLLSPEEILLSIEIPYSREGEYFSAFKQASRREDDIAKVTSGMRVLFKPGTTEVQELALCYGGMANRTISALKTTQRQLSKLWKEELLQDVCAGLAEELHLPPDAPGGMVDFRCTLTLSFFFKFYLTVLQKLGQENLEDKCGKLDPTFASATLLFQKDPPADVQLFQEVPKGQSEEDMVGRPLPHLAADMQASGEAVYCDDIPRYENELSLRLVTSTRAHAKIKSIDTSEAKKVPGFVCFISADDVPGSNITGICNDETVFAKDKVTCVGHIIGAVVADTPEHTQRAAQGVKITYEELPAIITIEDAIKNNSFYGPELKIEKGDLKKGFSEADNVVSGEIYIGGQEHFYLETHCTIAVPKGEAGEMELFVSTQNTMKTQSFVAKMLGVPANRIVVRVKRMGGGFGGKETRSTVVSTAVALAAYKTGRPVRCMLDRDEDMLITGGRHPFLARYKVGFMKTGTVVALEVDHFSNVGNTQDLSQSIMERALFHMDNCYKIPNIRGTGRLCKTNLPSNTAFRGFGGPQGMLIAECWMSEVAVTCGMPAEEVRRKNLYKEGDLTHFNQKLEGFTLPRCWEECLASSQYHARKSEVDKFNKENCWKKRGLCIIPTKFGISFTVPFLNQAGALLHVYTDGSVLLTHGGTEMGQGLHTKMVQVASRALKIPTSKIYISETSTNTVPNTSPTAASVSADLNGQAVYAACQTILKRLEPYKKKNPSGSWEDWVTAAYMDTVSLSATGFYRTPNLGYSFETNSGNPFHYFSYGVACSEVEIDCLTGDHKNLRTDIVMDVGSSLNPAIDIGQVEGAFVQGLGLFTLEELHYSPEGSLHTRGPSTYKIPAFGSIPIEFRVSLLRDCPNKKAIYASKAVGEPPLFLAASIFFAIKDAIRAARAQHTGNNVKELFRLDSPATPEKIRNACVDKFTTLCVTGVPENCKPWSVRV

Structure (SMILES): COc1cc(OC)c2c(O)c3c(=O)cc(C)oc3c(-c3c(OC)cc4cc(O)c5c(=O)cc(C)oc5c4c3OC)c2c1 [FONSECINONE A]
- IC50 [1]: 19.5 µM

Structure (SMILES): COc1cc(OC)c2c(O)c3c(=O)cc(C)oc3cc2c1 [RUBROFUSARIN B]
- IC50 [1]: 16.8 µM
- IC50 [2]: 15.7 µM
